Experimental data: PubChem BioAssay (NCI)
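Test compounds were applied to cells in 96-well plates for 48 hours at 5 doses. GI50 is the concentration that inhibits growth by half. TGI is the concentration that stops growth completely.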

Tests used:
Experiment in all cases: NCI anticancer screen, dose series, 48 h
SF-268 CNS = system: SF-268 CNS
SK-MEL-5 melanoma = system: SK-MEL-5 melanoma
RPMI-8226 leukemia = system: RPMI-8226 leukemia
NCI-H23 lung = system: NCI-H23 lung
UACC-62 melanoma = system: UACC-62 melanoma
SN12C renal = system: SN12C renal
BT-549 breast = system: BT-549 breast

| Structure (SMILES) | GI50 (SF-268 CNS) | TGI (SF-268 CNS) | GI50 (SK-MEL-5 melanoma) | TGI (SK-MEL-5 melanoma) | GI50 (RPMI-8226 leukemia) | TGI (RPMI-8226 leukemia) | GI50 (NCI-H23 lung) | TGI (NCI-H23 lung) | GI50 (UACC-62 melanoma) | TGI (UACC-62 melanoma) | GI50 (SN12C renal) | TGI (SN12C renal) | GI50 (BT-549 breast) | TGI (BT-549 breast) |
| --- | --- | --- | --- | --- | --- | --- | --- | --- | --- | --- | --- | --- | --- | --- |
| Cn1ncc2c(N)nc(N3CCCCC3)nc21 | 29.6 µM | 69.2 µM | 18.4 µM | 33.8 µM | 33.1 µM | > 100 µM | 28.4 µM | > 100 µM | 19.6 µM | 37.3 µM | 28.5 µM | 75.2 µM | 31.9 µM | > 100 µM |
| C#CC1(O)C(COP(=O)(O)OC2CC(n3cc(F)c(=O)[nH]c3=O)OC2CO)OC(n2ccc(N)nc2=O)C1O (configuration not stated) | < 0.01 µM | 13.5 µM | < 0.0154 µM | 0.196 µM | < 0.01 µM | – | < 0.026 µM | > 38 µM | 0.019 µM | 1.82 µM | < 0.0106 µM | > 100 µM | < 0.0157 µM | 0.909 µM |
| CCCCCCCCCCN(CCCCCCCCCC)CC(=O)c1ccc2cc(Br)c3ccccc3c2c1 | 3.07 µM | 9.47 µM | 1.74 µM | 3.28 µM | 2.27 µM | 4.88 µM | 1.78 µM | 3.4 µM | 1.61 µM | 3.35 µM | 1.6 µM | 3.33 µM | 10.9 µM | 23.6 µM |
| NNc1nc2ccccc2c(=O)n1NC(=O)C(=O)Nc1cccc(C(F)(F)F)c1 | – | > 100 µM | – | > 100 µM | – | > 100 µM | – | > 100 µM | – | > 100 µM | – | > 100 µM | – | > 100 µM |
| CN(C)CCCN1c2nc3ccccc3cc2Sc2cc3ccccc3nc21 | 1.59 µM | 3 µM | 1.59 µM | 3.04 µM | 0.45 µM | 2.08 µM | 1.4 µM | 2.86 µM | 1.46 µM | 2.8 µM | 1.28 µM | 2.55 µM | 1.42 µM | 2.84 µM |
| OCC1OC(n2ccc3c(NO)ncnc32)C(O)C1O (configuration not stated) | 0.233 µM | 2.81 µM | 0.171 µM | 0.325 µM | 0.138 µM | 0.504 µM | 0.214 µM | 1.17 µM | 0.128 µM | 0.326 µM | 0.212 µM | 1.61 µM | 0.193 µM | 0.764 µM |
| CC(=O)O[C@H]1CC[C@@]2(C)C(=CC[C@H]3[C@@H]4C/C(=C\c5cccc(OCCN6CCOCC6)c5)[C@H](OC(C)=O)[C@@]4(C)CC[C@@H]32)C1 | 12.6 µM | 58.8 µM | 10.5 µM | 22.3 µM | 2.99 µM | 9.92 µM | 6.97 µM | 23.8 µM | 6.1 µM | 19.1 µM | 25 µM | > 100 µM | – | – |
| COC1CC2C=C(C)/C=C/C=C/C(=O)NC(c3ccccc3)C/C=C/CCC(O)CC(=O)C2=C1O (configuration not stated) | 0.365 µM | 1.51 µM | – | – | 0.186 µM | 0.566 µM | 0.24 µM | 1.11 µM | 0.318 µM | 1.54 µM | 0.227 µM | 1.11 µM | 0.261 µM | 1.17 µM |
| CCOC(=O)c1[nH]c(-c2ccc(Cl)cc2)cc1-c1cccnc1 | 2.36 µM | > 100 µM | 0.401 µM | > 100 µM | – | – | 2.33 µM | > 100 µM | 0.843 µM | > 100 µM | 1.44 µM | > 100 µM | 0.27 µM | 1.46 µM |
| CC/C=C\C[C@H](O)C/C=C1/C(=O)C=C[C@@H]1C/C=C\CCCC(=O)N(C)C | 3.04 µM | 13.9 µM | 1.6 µM | 3 µM | 0.671 µM | 6.01 µM | 2 µM | 5.74 µM | 2.2 µM | 5.12 µM | 2.6 µM | 10.9 µM | – | – |
| NNc1cccc(/C=C/c2ccccc2)cc1=O | 4.27 µM | > 100 µM | 11.7 µM | > 100 µM | 3.85 µM | > 100 µM | – | – | 5.33 µM | 93.1 µM | 15.2 µM | > 100 µM | 33.5 µM | > 100 µM |
| COc1cc(/C=C2\CC3C4CC=C5C[C@@H](OC(C)=O)CC[C@]5(C)C4CC[C@]3(C)C2=O)ccc1OCCCn1ccnc1 (some centres not stated) | 9.13 µM | 21.5 µM | 9.39 µM | 21.5 µM | 9.66 µM | 24.2 µM | 8.35 µM | 17.7 µM | 8.4 µM | 16.5 µM | 8.99 µM | 16.6 µM | – | – |
| CCCCNN | – | – | – | > 100 µM | – | > 100 µM | – | > 100 µM | – | > 100 µM | – | > 100 µM | – | > 100 µM |
| Cc1sc(C)c(Cc2c(C)sc(C)c2CCl)c1CCl | > 100 µM | > 100 µM | > 100 µM | > 100 µM | > 100 µM | > 100 µM | > 100 µM | > 100 µM | – | – | > 100 µM | > 100 µM | > 100 µM | > 100 µM |
| ClC(Cl)c1nc(-c2cccnc2)n2nc(-c3ccccc3)cc2n1 | 2.28 µM | 5.76 µM | – | – | – | – | 0.62 µM | 2.9 µM | – | – | – | – | – | – |
| NC(=O)c1cc(Br)cc(C2CCCCC2)c1O | 11.4 µM | 25 µM | 15.1 µM | 28.9 µM | – | – | 15.3 µM | 30.8 µM | 11.5 µM | 23.9 µM | 12.2 µM | 25.1 µM | 13.6 µM | 26.4 µM |
